SMILES strings stand for the structures.

The nature of the series: gradient 5% acetonitrile 3 min, to 50% in 2 min, to 85% in 15 min, held 3 min, 100 µL/min. To be noted: column: Zorbax Extend-C18 2.1 x 50 mm; eluents: water / acetonitrile, 0.1% formic acid. The gist of the method: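 Mixtures of ~100 pure standards were chromatographed on a Zorbax Extend-C18 column (2.1 × 50 mm, 1.8 μm) at 100 μL/min using water and acetonitrile, each with 0.1% formic acid. Detection used a quadrupole time-of-flight mass spectrometer in positive and negative ionization mode, and data collection spanned 3 months. Retention time was obtained from adduct peaks picked computationally and each checked manually.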
Molecule `CCOCCCNC(=O)c1ccc2nc(CCc3ccc(NC(C)=O)cc3)[nH]c2c1` came in with an RP-LC retention time of 589 s.
With `CCOc1ccc(NC(=O)N2CCN(CCn3c(C(F)(F)F)nc4cccnc43)CC2)cc1`, the RP-LC retention time came to 649 s.
Consider `CCCc1c(C(=O)O)nnn1Cc1cccc(OC)c1`, for which the RP-LC retention time came to 738 s.
To `CCc1noc(NC(C)=O)c1-c1ccc(OC)c(S(=O)(=O)Nc2ccc(OC)cc2)c1` belongs 749 s; to `O=C(Cn1cnc(-c2noc(-c3ccncc3)n2)c1)NCc1ccc(F)cc1`, 654 s; to `COc1cccc(-c2csc(Cc3nc(-c4ccc(Br)cc4)no3)n2)c1`, 1280 s.
In turn, `COC(=O)C1C(=O)C2=C(CC1C)Nc1ccccc1NC2c1ccc(Cl)cc1` (stereo not drawn) came in with an RP-LC retention time of 852 s.
With `Cn1nnc2ccc(-c3noc(-c4cccc(Cl)c4)n3)cc21`, the RP-LC retention time is 1120 s.
Take `CCn1nccc1-c1cccc(-c2noc(CNS(=O)(=O)c3ccccc3)n2)c1`: the RP-LC retention time was 884 s.
Molecule `CCN1C(=O)COc2ccc(-c3noc(-c4ccc(C)c(C)c4)n3)cc21` showed an RP-LC retention time of 1300 s.
Consider `O=C(Cc1cccs1)Nc1c(C(=O)N2CCN(c3ccccn3)CC2)oc2ccccc12`, for which the RP-LC retention time stood at 675 s.
Molecule `O=C(Nc1cc(-c2ccccn2)no1)c1ccc(F)cc1` yielded an RP-LC retention time of 795 s.
For `COc1ccc(-c2nnc(-c3cccnc3N3CCN(c4ccccc4C)CC3)o2)cc1` the value was 1280 s; for `CCNC(=O)NCCc1cn(CCOC)c2ncccc12`, 579 s.
To `Cc1ccc(C(C)C)c(OCC(=O)N(Cc2ccc(C)o2)C2CCS(=O)(=O)C2)c1` (stereo not drawn) belongs 1110 s.
`O=C(Cn1cccc1-c1nnc(-c2ccccc2)o1)N1CCN(c2cccc(Cl)c2)CC1` displayed an RP-LC retention time of 1120 s.
In the case of `CCOC(=O)N1CCC2(CC1)OC(=O)C(C)=C2C(=O)Nc1cccc(OC)c1`, the RP-LC retention time is 845 s.
In turn, `O=C(CN1C(=O)C2CCCCN2C(=O)c2ccccc21)Nc1ccc(C(F)(F)F)cc1` (stereo not drawn) yielded an RP-LC retention time of 890 s.
Molecule `O=C(NCCSc1ncc(-c2ccc(F)cc2)[nH]1)c1ccc(Br)o1` came in with an RP-LC retention time of 596 s.
The molecule `Cn1nccc1-c1cccc(-c2noc(-c3ccc(F)cc3)n2)c1` came in with an RP-LC retention time of 915 s.
The molecule `CCN(CC)c1nc2cc(C(=O)OC)ccc2c(=O)n1-c1ccccc1` gave an RP-LC retention time of 1110 s.
As to `CC(=O)Nc1c(C)noc1/C=C\c1ccc(S(=O)(=O)N2CCN(c3ncccn3)CC2)cc1`, the RP-LC retention time stood at 762 s.
The molecule `COc1ccc(OCC(=O)N(C)CCc2noc(COc3ccccc3F)n2)cc1` registered an RP-LC retention time of 848 s.
As to `Cc1ccc2c(c1)cc(S(=O)(=O)c1ccccc1)c(=O)n2CC(=O)NCCC(C)C`, the RP-LC retention time turned out to be 938 s.
The molecule `Cc1ccc(NC(=O)Cn2cnc3nc(N4CCCC(C(=O)NC(C)C)C4)sc3c2=O)c(F)c1` (stereo not drawn) returned an RP-LC retention time of 701 s.
As to `COc1ccc(NC(=O)CSc2ccc(N3CCCC(C(=O)NC4CC4)C3)nn2)cc1OC` (stereo not drawn), the RP-LC retention time is 596 s.
To `O=C(Nc1ccccc1)N1CC(Oc2cccc(-c3nc(-c4ccccc4)no3)c2)C1` belongs 1160 s; to `COc1ccccc1N1CCN(c2cc(C(=O)O)c3cc(NS(C)(=O)=O)ccc3n2)CC1`, 619 s.
As to `O=C(NC1CCCC1)C1CCCN(S(=O)(=O)Cc2ccc(Cl)cc2)C1` (stereo not drawn), the RP-LC retention time stood at 910 s.
`CCn1c(=O)n(-c2ccc(F)cc2)c2nc(-c3ccc(F)c(F)c3)nc(C(N)=O)c21` registered an RP-LC retention time of 1050 s.
`COC(=O)Nc1nc(CC(=O)NCc2cn3ccccc3n2)cs1` showed an RP-LC retention time of 617 s.
The molecule `O=c1n(Cc2cccc(Cl)c2)nc2c(S(=O)(=O)N3CCc4ccccc4C3)cccn12` returned an RP-LC retention time of 1010 s.
`CCOC(=O)c1ccccc1NC(=O)Cn1nc2n(c1=O)CCCCC2` came in with an RP-LC retention time of 821 s.
`COC(=O)C1=CN(c2ccc(OC)c(Cl)c2)c2ccc(F)cc2S1(=O)=O`: the RP-LC retention time came to 886 s.
Regarding `O=C1/C(=C\c2ccc(O)c(O)c2)Oc2cc(O)ccc21`, the RP-LC retention time is 710 s.
To `Cn1nc(-c2nnc(-c3ccc(F)cc3)o2)c2c1CCN(S(=O)(=O)c1cc(F)ccc1F)C2` belongs 958 s; to `Cc1ccc(Cc2nc(CCNC(=O)C3CCN(S(=O)(=O)c4ccc(C)cc4)CC3)n[nH]2)cc1`, 769 s.
Consider `Cc1nn(-c2ccccc2)c2ccn(CC(=O)N3CCN(c4ccccc4Cl)CC3)c(=O)c12`, for which the RP-LC retention time was determined as 642 s.
Consider `CC(=O)Nc1nc(-c2ccc(S(=O)(=O)N3CCOCC3)cc2)cs1`, for which the RP-LC retention time turned out to be 735 s.
`COc1ccc(CNS(=O)(=O)c2cc(-c3nc(C(C)(C)C)cs3)cs2)cc1` returned an RP-LC retention time of 1200 s.
With `CS(=O)(=O)N1CC(C(=O)Nc2ccccc2-c2ccccc2)Oc2ccccc21` (stereo not drawn), the RP-LC retention time was determined as 1090 s.
In the case of `CCC(C)C(=O)N1CCCN(C2=NS(=O)(=O)C(c3ccccc3)=C2C)CC1` (stereo not drawn), the RP-LC retention time worked out at 777 s.
`Cc1ccc(C)c(N2CCN(c3ccnc(SCC(=O)Nc4cc(Cl)ccc4C)n3)CC2)c1`: the RP-LC retention time came out at 952 s.
To `Clc1ccc(Cl)c(-c2ccc(CNCc3ccncc3)o2)c1` belongs 664 s.
With `C[C@H]1C[C@H]2[C@@H]3CCC4=CC(=O)C=C[C@]4(C)[C@H]3C(=O)C[C@]2(C)[C@@]1(O)C(=O)CO`, the RP-LC retention time was determined as 775 s.
On to `CC(C)(C)C(=O)Nc1ccc(SCc2nnc(-c3ccc4c(c3)OCO4)o2)cc1`, for which the RP-LC retention time amounted to 945 s.
Consider `CC(C)CC(=O)N1CCc2c([nH]c3ccccc23)C12C(=O)N(C)c1ccccc12` (stereo not drawn), for which the RP-LC retention time is 951 s.
To `COc1ccc(-c2nnc(-c3ccc(C)c(S(=O)(=O)Nc4cccnc4)c3)o2)cc1OC` belongs 722 s; to `CC1=C(c2ccccc2)S(=O)(=O)N=C1N1CCCN(C(=O)CC(C)(C)C)CC1`, 854 s; to `Cc1c(C(=O)NCC2CC2)cnn1-c1cc(-c2nc(C(C)(C)C)no2)ccn1`, 742 s.
In turn, `O=C(Nc1ccccc1F)C1CCc2nc(N3CCOCC3)ncc2C1` (stereo not drawn) gave an RP-LC retention time of 778 s.
`Cc1cccc(N2CCN(c3cc(-c4ccccc4)nc4c(-c5ccccc5)cnn34)CC2)n1` showed an RP-LC retention time of 1010 s.
In the case of `CCN1C(=O)COc2ccc(-c3noc(C(C)NC(=O)c4ccccc4)n3)cc21` (stereo not drawn), the RP-LC retention time was determined as 856 s.
In the case of `COc1c(S(=O)(=O)Nc2cccnc2)ccc(Cl)c1Cl`, the RP-LC retention time was 649 s.
With `Cc1c(S(=O)(=O)NCCC2CCN(C(=O)c3ccc(F)cc3)CC2)cnn1C(F)F`, the RP-LC retention time worked out at 813 s.
To `COc1ccc(Cc2nc3nccc(-c4ccccc4)n3n2)cc1` belongs 872 s.
The molecule `Cc1ccc(Cl)cc1NC(=O)c1[nH]c(C)c(S(=O)(=O)N2CCCC2)c1C` displayed an RP-LC retention time of 949 s.
To `CCN1C(=O)COc2ccc(-c3noc(/C=C/c4ccc(OC)cc4)n3)cc21` belongs 1130 s.
Molecule `Cc1cccc(N2CCN(S(=O)(=O)c3ccc(-c4nnc(C5CCC5)o4)o3)CC2)c1` displayed an RP-LC retention time of 1140 s.
`CNC(=O)c1[nH]c2ccc(C)cc2c1N1CCCC1=O` showed an RP-LC retention time of 675 s.
For `COC(=O)c1cc(OCC(=O)NC2CCCC2)c2cc(OC)ccc2n1` the value was 739 s.
To `O=C(Cc1ccc(F)cc1)Nc1cc(-c2cccs2)no1` belongs 926 s.
`CCC(CC)C(=O)N1CCC2(CC1)C(=O)N(C)c1ccccc12` came in with an RP-LC retention time of 850 s.
For the molecule `COCc1nnc(-c2ccc3c(c2)OCO3)o1`, the RP-LC retention time is 722 s.
To `Cc1onc(-c2ccccc2)c1C(=O)Nc1nc(-c2ccc(F)cc2)cs1` belongs 1090 s; to `Cn1c(=O)c(=O)n(C)c2cc(N3CCCCC3)c(NC(=O)CN3CCOCC3)cc21`, 608 s; to `CN(CCc1noc(COc2ccc(Cl)cc2)n1)C(=O)NC(C)(C)C`, 953 s.
For the molecule `COc1ccc(NC(=O)Cn2nc(N3CCCC3)c3ccccc3c2=O)cc1OC`, the RP-LC retention time was 796 s.
To `Cc1cc2nn(CC(=O)N3CCCC3)c(=O)n2c(Nc2ccc(C)c(F)c2)n1` belongs 922 s; to `CCCN1C(=O)CCc2cc(NS(=O)(=O)c3ccc(CC(C)C)cc3)ccc21`, 1030 s; to `c1ccc(-c2nc(-c3cccc(-c4ccn[nH]4)c3)no2)nc1`, 739 s.
The molecule `COc1cc(C2C(C(=O)N3CCCCC3)=C(C)NC3=C2C(=O)CC(C)(C)C3)cc(OC)c1O` (stereo not drawn) returned an RP-LC retention time of 1050 s.
In turn, `Cn1nc(-c2nnc(-c3ccccc3)o2)c2c1CCN(S(=O)(=O)c1ccc(Cl)s1)C2` showed an RP-LC retention time of 1010 s.
For the molecule `COCc1cc(=O)n(CC(=O)Nc2ccccc2C)c(N)n1`, the RP-LC retention time came to 603 s.
In turn, `COc1ccc(-c2nc(COc3cc(C(F)(F)F)c4c(C)nn(C)c4n3)c(C)o2)cc1OC` gave an RP-LC retention time of 1190 s.
Molecule `COC(=O)c1c(NCC(C)C)c2cccc(Cl)c2[nH]c1=O` came in with an RP-LC retention time of 792 s.
The molecule `COC(=O)C1=CN(c2ccccc2)c2cc(F)ccc2S1(=O)=O` returned an RP-LC retention time of 787 s.
For `COc1ccc2nc(CN3CCN(S(=O)(=O)c4cccs4)CC3)[nH]c2c1`, the RP-LC retention time is 584 s.

(Values after the METLIN SMRT retention time set (Domingo-Almenara et al. 2019).)
